# Paper PMC6328587 (Nature Communications, 2019)
# Key:
# Type in all cases: cell-based
# ERK2 = molecular target: T1, ERK2 (Homo sapiens, UniProt P28482); experiment: ERK2 degradation, western blot in MDA-MB-231 cells; conditions: 0.025-2.5 µM
# T1 construct: endogenous in cells; host or cells: MDA-MB-231
# Protocol: […] once with ice-cold PBS (1 × ), followed by lysis in buffer containing 25 mM Tris [pH 7.5], 0.25% sodium deoxycholate, 1% Triton X-100, supplemented with 1X protease inhibitor cocktail (Roche), and phosphatase inhibitors (10 mM NaF, 1 mM Na3VO4, and 20 mM β-glycerophosphate), unless otherwise noted. Lysates were spun at 14,000 × g for 10 min at 4 °C and supernatant was evaluated for protein content using a Pierce BCA Protein Assay (ThermoFisher Scientific). In all experiments, 25–50 μg of protein was loaded onto 10% SDS-PAGE gels or 4–20% Criterion TGX precast gradient gels (Bio-Rad), transferred to nitrocellulose membranes, and probed with the specified antibodies overnight at 4 °C in 1X TBS-Tween (Tris-buffered saline plus 0.02% Tween 20) containing 5% non-fat milk. Immunoblots were visualized using a Bio-Rad ChemiDoc imaging instrument and subsequently processed and quantified using the accompanying Bio-Rad ImageLab software. See Supplementary Figure 8 for uncropped scans of western blots shown in the main text figures.
# Supplementary Figure 4 cont.
# Supplementary Figure 4. Characterization of M APK fam ily degradation selectivity (related to Figures 1-2). (a) p38 M APK fam ily m em bers (α, β, δ, γ) were aligned using the T-Coffee multiple sequence alignm ent server. […] Note: JNK1 and JNK2 are expressed as two alternatively-spliced form s. […]
# FLAG-p38δ = molecular target: T2, FLAG-p38δ (Homo sapiens, UniProt O15264); experiment: Ubiquitination assay, FLAG-p38δ and HA-Ub in HeLa cells; conditions: 1 µM PROTAC, 2 h
# T2 construct: expressed in transfected cells; host or cells: HeLa
# T2 sequence (O15264 1-365): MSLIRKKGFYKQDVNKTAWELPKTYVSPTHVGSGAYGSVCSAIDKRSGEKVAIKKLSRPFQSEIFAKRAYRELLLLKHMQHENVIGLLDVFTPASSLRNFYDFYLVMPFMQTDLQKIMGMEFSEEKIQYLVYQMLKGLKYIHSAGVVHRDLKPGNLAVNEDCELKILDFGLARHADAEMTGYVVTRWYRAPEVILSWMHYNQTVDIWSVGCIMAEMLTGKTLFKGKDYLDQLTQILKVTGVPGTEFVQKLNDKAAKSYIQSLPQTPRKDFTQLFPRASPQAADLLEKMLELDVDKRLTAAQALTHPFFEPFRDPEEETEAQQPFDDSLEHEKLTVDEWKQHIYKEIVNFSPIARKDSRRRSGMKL
# Protocol: HeLa cells (2 × 10^6) were seeded into 10 cm dishes and allowed to adhere overnight. On the following day, cells were transfected with 3 µg pcDNA5-FLAG-p38α or pcDNA5-FLAG-p38δ and 1 µg pRK5-HA-Ubiquitin-WT (Addgene plasmid #17608) in Opti-MEM media using Lipofectamine 2000 (Invitrogen). After 6 h, Opti-MEM media were replaced with DMEM (1 × ) and cells were grown for an additional 24 h. After this time, cells were treated with indicated concentrations of either vehicle (DMSO) or PROTAC for the indicated amount of time at 37 °C. Cells were then placed on ice, rinsed twice with ice-cold 1X PBS and lysed in 500 µL modified 1X RIPA buffer (25 mM Tris-HCl pH 7.6, 150 mM NaCl, 1% NP-40, 1% sodium deoxycholate, 0.1% SDS) containing 5 mM 1,10-phenanthroline monohydrate, 10 mM N-ethylmaleimide, 20 µM PR-619, and 1X protease inhibitor cocktail (Roche). Lysates were spun down at 14,000 × g at 4 °C for 20 min and protein content was measured by Pierce BCA Protein Assay (ThermoFisher Scientific). […] Immunoprecipitated protein was eluted off of the beads by heating at 95 °C for 5 min and the supernatant was run on an SDS-PAGE gel and evaluated for the presence of immunoprecipitated FLAG-tagged proteins (anti-FLAG M2, Sigma #F1804), as well as ubiquitinated FLAG-tagged proteins (anti-HA-tag (6E2), CST #2367). […]
# p38α = molecular target: T3, p38α (Homo sapiens, UniProt Q16539); experiment: PROTAC washout assay, p38α; conditions: 250 nM PROTAC for 24 h, then re-plated in fresh medium
# T3 construct: SJFα PROTAC (13-atom linker, amide attachment) selectively degrades p38α; endogenous in cells; host or cells: MDA-MB-231
# Protocol: (§1) MDA-MB-231 cells were plated at 1.5 × 10^5 cells per well in a six-well dish and allowed to adhere overnight. On the following day, all cells were treated with either vehicle (DMSO) or PROTAC (250 nM). After 24 h, cells were either harvested or washed with 1X PBS, trypsinized, and re-plated onto new six-well dishes in fresh RPMI-1640 (1 × ) media without additional compound. For these washout conditions, cells were collected every 24 h until final harvest (72 h washout).
# p38δ = molecular target: T4, p38δ (Homo sapiens, UniProt O15264); experiment: PROTAC washout assay, p38δ; conditions: 250 nM PROTAC for 24 h, then re-plated in fresh medium
# T4 construct: endogenous in cells; host or cells: MDA-MB-231
# T4 sequence (O15264 1-365): T2 sequence (O15264 1-365)
# Protocol: as §1
# T1 sequence (P28482 whole entry): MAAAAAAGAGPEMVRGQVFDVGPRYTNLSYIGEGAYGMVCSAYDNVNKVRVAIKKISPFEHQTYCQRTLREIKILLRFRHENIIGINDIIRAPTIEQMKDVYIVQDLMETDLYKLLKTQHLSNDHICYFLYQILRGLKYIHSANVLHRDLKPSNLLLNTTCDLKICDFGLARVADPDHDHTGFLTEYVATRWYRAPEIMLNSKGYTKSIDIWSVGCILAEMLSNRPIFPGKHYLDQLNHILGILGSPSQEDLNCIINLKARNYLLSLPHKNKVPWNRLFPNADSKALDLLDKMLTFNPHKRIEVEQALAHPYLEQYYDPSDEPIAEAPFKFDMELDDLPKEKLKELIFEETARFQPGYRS
# T3 sequence (Q16539 whole entry): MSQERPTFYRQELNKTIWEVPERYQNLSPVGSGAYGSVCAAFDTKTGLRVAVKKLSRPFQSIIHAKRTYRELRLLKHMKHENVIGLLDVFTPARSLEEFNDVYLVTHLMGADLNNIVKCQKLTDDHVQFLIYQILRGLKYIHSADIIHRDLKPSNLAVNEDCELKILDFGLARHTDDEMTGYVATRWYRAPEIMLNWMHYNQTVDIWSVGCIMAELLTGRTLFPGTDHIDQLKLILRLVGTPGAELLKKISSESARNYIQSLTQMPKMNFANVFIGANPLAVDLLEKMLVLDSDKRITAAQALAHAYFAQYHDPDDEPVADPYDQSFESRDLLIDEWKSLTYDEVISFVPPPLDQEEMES
ERK2 degradation (ERK2),time p38α degradation efficacy is maintained post-washout (p38α) [h],time p38δ degradation efficacy is maintained post-washout (p38δ) [h],SMILES,ubiquitination of immunoprecipitated FLAG-p38δ (FLAG-p38δ)
neither PROTAC degrades,72,–,COc1cc2c(Oc3ccc(NC(=O)C4(C(=O)Nc5ccc(F)cc5)CC4)cc3F)ccnc2cc1OCCCCOCCCCOCC(=O)N[C@H](C(=O)N1C[C@H](O)C[C@H]1C(=O)NCc1ccc(-c2scnc2C)cc1)C(C)(C)C [SJFα],far less abundant
neither PROTAC degrades,–,24,COc1cc2c(Oc3ccc(NC(=O)C4(C(=O)Nc5ccc(F)cc5)CC4)cc3F)ccnc2cc1OCCOCCOCCOc1cc(-c2scnc2C)ccc1CNC(=O)[C@@H]1C[C@@H](O)CN1C(=O)[C@H](C(C)C)N1Cc2ccccc2C1=O [SJFδ],levels of ubiquitination of immunoprecipitated p38δ greater than control cells
